Legend:
Zaxinone Synthase (ZAS) = assay: qRT-PCR of ZAS transcript levels in rice after zaxinone or GR24; assay type: in vivo, rice (Nipponbare); conditions: WT rice, phosphate starvation, 5 μM, 6 h
Protocol: (§1) Total RNA was extracted from the roots and shoots using a Qiagen Plant RNeasy Kit according to the manufacturer's instruction. cDNA was synthesized from 1 μg of total RNA using iScript cDNA Synthesis Kit (BIO-RAD Laboratories, Inc, 2000 Alfred Nobel Drive, Hercules, CA, Cat. No #170-8890) according to instructions in the user manual. For mycorrhizal samples, single-strand cDNA was synthesized from 1 μg of total RNA using Super-Script II (Invitrogen) according to instructions in the user manual. Primers used for real-time quantitative RT-PCR (qRT-PCR) analysis are listed below in Table 3. qRT-PCR was performed using SYBR Green Master Mix (Applied Biosystems; www.lifetechnologies.com) in a StepOnePlus (Life Technologies, Carlsbad, CA, USA). For mycorrhizal samples, qRT-PCR was performed using a Rotor-Gene Q 5plex HRM Platform (Qiagen). The 2-ΔCt method was used to calculate the relative gene expression levels and rice Ubiquitin (OsUBQ or OsRubQ1) gene was used as the internal control to normalize target gene expression.
FIGS. 14A-14C show transcript levels of Zaxinone Synthase (ZAS) in wild type roots and shoots. In FIG. 14A, the relative expression levels of ZAS under normal (+Pi) and phosphate-starved (−Pi) conditions in Nipponbare wild-type (WT) roots and shoots is seen. The expression levels in the WT root were normalized to 1. In FIG. 14B, the relative expression levels of ZAS under −Pi conditions with 5 μM of Zaxinone and GR24 treatment in WT rice root and shoot is seen. Three weeks-old seedlings were transferred to new hydroponic pots containing fresh media with or without chemicals for 6 h. The expression levels in the WT-mock were normalized to 1 and the expression levels were detected by qRT-PCR. Ubiquitin was used as a reference gene. Bars represent mean±SD (n=3). Mock treatment (0.1% acetone). Different letters above each bar denote significant difference following a One-way ANOVA test (P<0.05).

[1] = system: SL biosynthesis genes (D27, CCD7, CCD8 and CO); assay: qRT-PCR of transcript levels of SL biosynthesis genes (all four together) in rice roots; assay type: in vivo; conditions: Shiokari wild-type and d3 seedlings, phosphate-starved, 5 μM, 6 h
Protocol: For the analysis of SL transcript levels in the zas mutant, one week-old seedlings were grown hydroponically in half-strength modified Hoagland nutrient solution with K2HPO4·2H2O (+Pi) and without K2HPO4·2H2O (−Pi) for 7 days. Seedlings were further treated with zaxinone for 6 h and tissues were collected.
as §1
Two week-old seedlings were grown for another one week in −Pi solution and then transferred to new vials containing fresh −Pi solution with and without the indicated concentrations (2.5 μM, 5 μM, 10 μM and 20 μM) of zaxinone for 6 h and samples were collected. SL biosynthetic genes expression for D27 (FIG. 19A), CCD7 […], CCD8 (FIG. 19C), and CO (Carlactone oxidase-FIG. 19D) in WT and zas mutants. […] The expression levels were detected by quantitative RT-PCR. Ubiquitin was used as a reference gene and the expression levels in the WT-mock were normalized to 1. Bars represent mean±SD (n=3). Different letters above each bar denote significant difference following a One-way ANOVA test (P<0.05).
Transcript levels of SL biosynthesis genes, D27 (FIG. 24C), CCD7/D17 (FIG. 24D), CCD8/D10 (FIG. 24E) and OsCO (Carlactone oxidase—FIG. 24F) in root tissues were collected for SL quantification. The expression levels were detected by qRT-PCR. Ubiquitin was used as a reference gene and the expression levels in the WT-mock were normalized to 1. Two week-old seedlings were grown for another one week in −Pi solution and then transferred to new vials containing fresh −Pi solution with and without 5 μM of zaxinone and GR24 for 6 h and samples were collected. Bars represent mean±SD (n=3). Different letters above each bar denote significant difference following a One-way ANOVA test (P<0.05).

CC1=C[C@H](O/C=C2/C(=O)O[C@@H]3c4ccccc4C[C@H]23)OC1=O [GR24, reference compound]
ZAS transcript levels in root tissues (Zaxinone Synthase (ZAS)): negatively impacted | SL transcript levels in roots [1]: affected the transcript levels only in wild-type seedlings
